Data on 4 compounds can be found in article PMC3404106, “Pharmacology of DB844, an Orally Active aza Analogue of Pafuramidine, in a Monkey Model of Second Stage Human African Trypanosomiasis” (PLoS Neglected Tropical Diseases, 2012).

Series [1] is described as follows: Pharmacokinetics (plasma and CSF) in infected monkeys after last DB844 dose. Particulars: for Tmax: po.
A short description of series [2]: Metabolism of DB844 in vervet monkey liver microsomes. The format is in vitro ADME. As for the experimental part: The metabolism of DB844 was investigated using liver microsomes, prepared from a male vervet monkey by XenoTech, LLC (Lenexa, KS), in the presence of NADPH as described previously with modifications. Briefly, incubation mixtures (1 ml at pH7.4, in triplicate) contained 10 µM DB844 and 0.2 mg/ml monkey liver microsomes. After a 5-min equilibration period at 37°C, reactions were initiated with the addition of NADPH. Aliquots (50 µl) of the reaction mixtures were removed at 0, 5, 10, 15, 30, 60, 90, and 120 min and mixed with 25 µl of ice-cold acetonitrile. The mixtures were centrifuged (10,000×g for 5 min at 4°C) and the supernatants were analyzed by HPLC/UV using the same method as previously described for DB289 [22]. […] DB844 and metabolites were quantified using a single-concentration calibration curve generated using synthetic standards.

A further series relates to 2nd stage HAT. On the set-up: method as in PMID 19620327, PMID 19064893. The conditions noted are these: cited from earlier work.
On the set-up of series [3]: method as in PMID 17360833. Particulars: dosed orally to cynomolgus monkey at 5 mg/kg; cited from earlier work.
The subject of series [4] is Trypanosoma brucei rhodesiense KETRI 2537. Also noted: method as in earlier work. Particulars: treatment initiated at 28 DPI; unpublished TRC-KARI data; cited from earlier work.
Details of series [5]: method as in PMID 20721830. The conditions noted are these: extended phase I clinical trial, 14 day dose regimen of 100 mg bid; cited from earlier work.

SMILES strings stand for the structures. “Also recorded” adds a separate entry of the source.

As for `N=C(N)c1ccc(-c2ccc(-c3ccc(C(=N)N)cn3)o2)cc1` [DB820], the “sporadic CSF concentration” value in series [1] (2/7 monkeys (571 and 624), between 24 and 96 h post dose) is listed as less than 4 nM. Further, the “detection in the CSF” value in series [1] (after last dose of DB844 6 mg/kg×14 days, samples at 1, 24, 96, 168 h and weekly) is recorded as “not detected”. Also, the concentration at 28 days in series [1] (monkey, in vivo, 6 mg/kg) stood at 35 nM. Besides, the Tmax in series [1] (monkey, in vivo, 6 mg/kg, Tmax, plasma, after the 14th oral dose of DB844 at 6 mg/kg, n = 7, median, analyte = label) is 4.08 h; in series [1] (monkey, in vivo, 6 mg/kg, time of peak plasma concentration, after the last (14th) dose of DB844 at 6 mg/kg, analyte = label), 4 h. Besides, the AUClast in series [1] (plasma, after the 14th oral dose of DB844 at 6 mg/kg, n = 7, geometric mean, analyte = label) is 1400 nmol·days/L.
With `CO/N=C(/N)c1ccc(-c2ccc(-c3ccc(/C(N)=N/O)cc3)o2)nc1` [M1B], in series [2], the “relative metabolite concentration in the drug/liver microsome mixture” value is “highest concentrations during the initial 20 minutes”.
Consider `CONC(=N)c1ccc(-c2ccc(-c3ccc(C(=N)NOC)cc3)o2)cc1` [pafuramidine, 2,5-bis(4-amidinophenyl)furan-bis-O-methylamidoxime], for which the “cure against 2nd stage HAT in animal models” value in the series on 2nd stage HAT was “did not achieve cure”. The Cmax in series [3] was 30 to 35 nM. The “cure in the vervet monkey model of CNS stage HAT” value in series [4] is “non-curative; also recorded: did not cure any monkey”. Moreover, the “subjects who developed delayed renal insufficiency” value in series [5] is listed as 6%.
Consider `N=C(N)c1ccc(OCCCCCOc2ccc(C(=N)N)cc2)cc1` [pentamidine], for which, in the series with 2nd stage HAT, the “cure against 2nd stage HAT in animal models” value is on record as “did not achieve cure”. The “cure in the vervet monkey model of CNS stage HAT” value in series [4] was “non-curative; also recorded: did not cure any monkey”.
